Results as given in patent publication US20260256792A1, “TREATMENT OF CHRONIC SPONTANEOUS URTICARIA BY ADMINISTERING (R)-2-[3-[4-AMINO-3-(2-FLUORO-4-PHENOXY-PHENYL)PYRAZOLO[3,4-D]PYRIMIDIN-1-YL]PIPERIDINE-1-CARBONYL]-4-METHYL-4-[4-(OXETAN-3-YL)PIPERAZIN-1-YL]PENT-2-ENENITRILE” (priority 2023, published 2026).

Test system: moderate-to-severe chronic spontaneous urticaria (CSU)
Experiment: Phase 2 CSU study: itch severity score over 7 days (ISS7)
Assay type: in vivo, human
Description: The study comprises a 12 week, randomized, double-blind, placebo-controlled, multi-center, dose-ranging efficacy and safety phase, followed by a 40 week open label extension (OLE) phase (see FIG. 1). The study consists of three phases and an optional OLE phase. […] Clinically, CSU is characterized by the spontaneous and recurrent appearance of pruritic hives. The proposed primary endpoints were the UAS7 at Week 12 in EU and EU reference countries and the ISS7 in the US. Regardless of where a participant was from, all assessments were the same. The UAS7 score is a composite score containing both the HSS7 and the ISS7. This allowed a global assessment of the two key components of urticaria: hives and itch. […] The UAS is a validated PRO measure. […] The daily UAS scores range from 0 to 6 point/day. […] Patients were to complete the UAS using the e-diary. […] The following secondary endpoints were to be analyzed using the same approach as for the primary endpoint: • Change from baseline in UAS7 at Week 4 • Change from baseline in UAS7 at Week 12 (for US and US reference countries) • Change from baseline in ISS7 at Week 12 (except US and US reference countries) • Change from baseline in HSS7 at Week 12

[1] = Omalizumab-naïve population, 400 mg BID (N = 35), double-blind period, last week block of Table 28 (week head not shown), WOCF imputation
[2] = Omalizumab-naïve population, 400 mg QPM (N = 37), double-blind period, last week block of Table 28 (week head not shown), WOCF imputation
[3] = Omalizumab-naïve population, 400 mg TID (N = 35), double-blind period, last week block of Table 28 (week head not shown), WOCF imputation
[4] = Patients with prior omalizumab use incl. incomplete responders, 400 mg TID (N = 6), double-blind period, last week block of Table 28 (week head not shown), WOCF imputation
[5] = Week 1, 400 mg BID, Omalizumab-Naïve
[6] = Week 1, 400 mg BID, Prior Omalizumab Use
[7] = Week 1, 400 mg QPM, Omalizumab-Naïve
[8] = Week 1, 400 mg QPM, Prior Omalizumab Use
[9] = Week 1, 400 mg TID, Omalizumab-Naïve
[10] = Week 1, 400 mg TID, Prior Omalizumab Use
[11] = Week 2, 400 mg BID, Omalizumab-Naïve

With `CC(C)(C=C(C#N)C(=O)N1CCC[C@@H](n2nc(-c3ccc(Oc4ccccc4)cc3F)c3c(N)ncnc32)C1)N1CCN(C2COC2)CC1` [rilzabrutinib, (R)-2-[3-[4-amino-3-(2-fluoro-4-phenoxy-phenyl)pyrazolo[3,4-d]pyrimidin-1-yl]piperidine-1-carbonyl]-4-methyl-4-[4-(oxetan-3-yl)piperazin-1-yl]pent-2-enenitrile] the “ISS7 Post-baseline Mean (SD)” value (Omalizumab-Naïve, 400 mg TID, Week 5) was 6.92 (5.87), the “ISS7 Post-baseline Mean (SD)” value (Omalizumab-Naïve, 400 mg TID, Week 7) was 7.14 (5.35) and the “ISS7 Post-baseline Mean (SD)” value (Omalizumab-Naïve, 400 mg TID, Week 8) was 7.24 (5.51). The “ISS7 Post-baseline Mean (SD)” value (Omalizumab-Naïve, 400 mg TID, Week 9) was 6.68 (5.31), the “ISS7 Post-baseline Mean (SD)” value (Omalizumab-Naïve, 400 mg TID, Week 10) was 6.75 (5.25) and the “ISS7 Post-baseline Mean (SD)” value (Omalizumab-Naïve, 400 mg TID, Week 11) was 6.99 (5.53). The “ISS7 Post-baseline Mean (SD)” value (Omalizumab-Naïve, 400 mg TID, Week 12) was 5.77 (5.26), the “ISS7 Change from baseline Mean (SD)” value [1] was −6.60 (7.33) and the “ISS7 Change from baseline Median” value [1] was −8.00. For the same compound, the “ISS7 Percent change from baseline Mean (SD)” value (from here on “ISS7 Percent change … (SD)”) [1] was −46.22 (56.25) %, the “ISS7 Percent change from baseline Median” value [1] was −53.33% and the “ISS7 change from baseline, Max” value [1] was 2.0. The “ISS7 change from baseline, Min” value [1] was −14.0, the “ISS7 change from baseline, Q1” value [1] was −13.00 and the “ISS7 change from baseline, Q3” value [1] was 0.00. For the same compound, the “ISS7 percent change from baseline, Max” value [1] was 22.2%, the “ISS7 percent change from baseline, Min” value [1] was −100.0% and the “ISS7 percent change from baseline, Q1” value [1] was −100.00%. The “ISS7 percent change from baseline, Q3” value [1] was 0.00%, the “ISS7 Change from baseline Mean (SD)” value [2] was −11.40 (8.46) and the “ISS7 Change from baseline Median” value [2] was −14.00. The “ISS7 Percent change … (SD)” value [2] was −66.19 (45.96) %, the “ISS7 Percent change from baseline Median” value [2] was −83.33% and the “ISS7 change from baseline, Max” value [2] was 0.0. For the same compound, the “ISS7 change from baseline, Min” value [2] was −20.0, the “ISS7 change from baseline, Q1” value [2] was −19.00 and the “ISS7 change from baseline, Q3” value [2] was 0.00. For the same compound, the “ISS7 percent change from baseline, Max” value [2] was 0.0%, the “ISS7 percent change from baseline, Min” value [2] was −100.0% and the “ISS7 percent change from baseline, Q1” value [2] was −100.00%. The “ISS7 percent change from baseline, Q3” value [2] was 0.00%, the “ISS7 Change from baseline Mean (SD)” value [3] was −6.20 (3.70) and the “ISS7 Change from baseline Median” value [3] was −7.00. For the same compound, the “ISS7 Percent change … (SD)” value [3] was −38.05 (24.78) %, the “ISS7 Percent change from baseline Median” value [3] was −47.37% and the “ISS7 change from baseline, Max” value [3] was 0.0. The “ISS7 change from baseline, Q1” value [3] was −9.00, the “ISS7 change from baseline, Q3” value [3] was −6.00 and the “ISS7 percent change from baseline, Max” value [3] was 0.0%. The “ISS7 percent change from baseline, Min” value [3] was −64.3%, the “ISS7 percent change from baseline, Q1” value [3] was −50.00% and the “ISS7 percent change from baseline, Q3” value [3] was −28.57%. The “ISS7 Change from baseline Mean (SD)” value [4] was −1.50 (2.12), the “ISS7 Change from baseline Median” value [4] was −1.50 and the “ISS7 Percent change … (SD)” value [4] was −18.75 (26.52) %. For the same compound, the “ISS7 Percent change from baseline Median” value [4] was −18.75%, the “ISS7 change from baseline, Max” value [4] was 0.0 and the “ISS7 change from baseline, Min” value [4] was −3.0. The “ISS7 change from baseline, Q1” value [4] was −3.00, the “ISS7 change from baseline, Q3” value [4] was 0.00 and the “ISS7 percent change from baseline, Max” value [4] was 0.0%. For the same compound, the “ISS7 percent change from baseline, Min” value [4] was −37.5%, the “ISS7 percent change from baseline, Q1” value [4] was −37.50% and the “ISS7 percent change from baseline, Q3” value [4] was 0.00%. For the same compound, the “ISS7 Change from baseline Mean (SD)” value [5] was −4.94 (4.65), the “ISS7 Change from baseline Median” value [5] was −4.00 and the “ISS7 Median” value [5] was 12.00. For the same compound, the “ISS7 Percent change … (SD)” value [5] was −33.91 (34.62) %, the “ISS7 Percent change from baseline Median” value [5] was −25.00% and the “ISS7 Change from baseline Mean (SD)” value [6] was −6.33 (5.82). The “ISS7 Change from baseline Median” value [6] was −4.50, the “ISS7 Median” value [6] was 13.00 and the “ISS7 Percent change … (SD)” value [6] was −35.93 (34.83) %. The “ISS7 Percent change from baseline Median” value [6] was −23.02%, the “ISS7 Change from baseline Mean (SD)” value [7] was −3.30 (4.93) and the “ISS7 Change from baseline Median” value [7] was −3.00. The “ISS7 Mean (SD)” value [7] was 13.08 (4.52), the “ISS7 Median” value [7] was 14.00 and the “ISS7 Percent change … (SD)” value [7] was −17.96 (28.66) %. For the same compound, the “ISS7 Percent change from baseline Median” value [7] was −19.05%, the “ISS7 Change from baseline Mean (SD)” value [8] was −8.00 (NC) and the “ISS7 Change from baseline Median” value [8] was −8.00. The “ISS7 Mean (SD)” value [8] was 13.00 (NC), the “ISS7 Median” value [8] was 13.00 and the “ISS7 Percent change … (SD)” value [8] was −38.10 (NC) %. The “ISS7 Percent change from baseline Median” value [8] was −38.10%, the “ISS7 Change from baseline Mean (SD)” value [9] was −6.17 (5.49) and the “ISS7 Change from baseline Median” value [9] was −5.00. For the same compound, the “ISS7 Mean (SD)” value [9] was 9.51 (5.64), the “ISS7 Median” value [9] was 9.00 and the “ISS7 Percent change … (SD)” value [9] was −38.58 (33.51) %. The “ISS7 Percent change from baseline Median” value [9] was −31.37%, the “ISS7 Change from baseline Mean (SD)” value [10] was −9.67 (5.32) and the “ISS7 Change from baseline Median” value [10] was −9.00. For the same compound, the “ISS7 Mean (SD)” value [10] was 7.33 (5.43), the “ISS7 Median” value [10] was 7.00 and the “ISS7 Percent change … (SD)” value [10] was −58.16 (26.72) %. The “ISS7 Percent change from baseline Median” value [10] was −66.07%, the “ISS7 Change from baseline Mean (SD)” value [11] was −5.00 (4.40) and the “ISS7 Change from baseline Median” value [11] was −5.00. For the same compound, the “ISS7 Mean (SD)” value [11] was 10.32 (5.64).
